Measurements: USRE44962E1, “Genetically engineered plant cells and plants exhibiting resistance to glutamine synthetase inhibitors, DNA fragments and recombinants for use in the production of said cells and plants” (Bayer Cropscience N.V., priority 1986, dated 2014)

Tests used:
PPT acetyl transferase = PPT acetyl transferase (Streptomyces hygroscopicus, UniProt P16426); type: biochemical, S. hygroscopicus ATCC 21 705; details: S. hygroscopicus derivates; S. lividans carrying pBG20 or pBG16
[1] = test system: glutamine synthetase (GS); details: cited from earlier work
S. lividans = type: cell-based
E. coli W3110 = assay: Growth of E. coli W3110 on M9 medium containing Bialaphos; type: cell-based; details: for resistance of pBG93/W3110 to Bialaphos: M9 medium
Phytophtora infestans = type: in vivo; details: sfr potato plants sprayed at 8 l/ha once symptoms visible, read two weeks later

Chain of PPT acetyl transferase (P16426 whole entry): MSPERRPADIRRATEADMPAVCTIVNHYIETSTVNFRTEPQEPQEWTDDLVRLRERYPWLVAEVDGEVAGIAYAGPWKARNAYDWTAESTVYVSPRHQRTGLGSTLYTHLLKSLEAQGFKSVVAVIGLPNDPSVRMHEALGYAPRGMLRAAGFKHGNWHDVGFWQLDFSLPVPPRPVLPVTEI

| Structure (SMILES) | acetylation by the PPT acetyl transferase activity (PPT acetyl transferase) | inhibition of glutamine synthetase (GS) [1] | growth of transformants containing pBG20 (S. lividans; S. lividans with pBG20, medium containing 500 μg/ml Bialaphos) | Bialaphos concentration at which S. lividans growth is normally inhibited (S. lividans; untransformed S. lividans, minimal medium) | growth of W3110 host devoid of pBG93 (E. coli W3110; M9 medium containing 5 μg/ml Bialaphos) | resistance of pBG93/W3110 to Bialaphos (E. coli W3110; in the presence of IPTG (0.5 mM)) | resistance of pBG93/W3110 to Bialaphos (E. coli W3110; without IPTG) | growth of the fungus on treated plants (Phytophtora infestans) |
| --- | --- | --- | --- | --- | --- | --- | --- | --- |
| CP(=O)(O)CCC(N)C(=O)O (stereo not shown) [PPT, phosphinothricin] | could acetylate | inhibits |  |  |  |  |  |  |
| CC(=O)NC(CCP(C)(=O)O)C(=O)O (stereo not shown) [N-acetyl PPT] |  | not an inhibitor |  |  |  |  |  |  |
| CC(NC(=O)C(C)NC(=O)C(N)CCP(C)(=O)O)C(=O)O (stereo not shown) [Bialaphos] | does not acetylate |  | not noticeably inhibited | 1 µg/mL | did not grow | 50 μg/ml | 5 μg/ml | stopped |
